{"source": "paper PMC5422493", "about": "“Important amino acid residues of hexachlorocyclohexane dehydrochlorinases (LinA) for enantioselective transformation of hexachlorocyclohexane isomers” (Biodegradation, 2017)", "key": {"LinA-type1": {"biological_target": "T1, LinA-type1 (Sphingobium indicum, UniProt P51697)", "T1 construct": "full length 156 residues, pET-26b(+) NdeI/XhoI (C-terminal His tag), E. coli BL21(DE3), Ni-NTA purified", "T1 sequence (P51697 1-156)": "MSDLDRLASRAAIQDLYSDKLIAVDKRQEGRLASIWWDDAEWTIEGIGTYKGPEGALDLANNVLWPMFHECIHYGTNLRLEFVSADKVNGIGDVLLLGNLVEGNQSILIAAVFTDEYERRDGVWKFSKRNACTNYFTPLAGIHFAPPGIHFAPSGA", "assay": "product formation by chiral GC-ECD", "assay_type": "biochemical", "conditions": "50 mM Tris-HCl pH 8.0, 10% glycerol, 30 °C"}, "LinA-type2": {"biological_target": "T2, LinA-type2 (uncultured organism, UniProt B5ANU3)", "T2 construct": "natural variant differing from LinA-type1 at ten positions (incl. Q20, C96, G131, M133); pET-26b(+) NdeI/XhoI (C-terminal His tag), E. coli BL21(DE3), Ni-NTA purified", "T2 sequence (B5ANU3 1-156)": "T1 sequence (P51697 1-156) with K20Q, A23G, F68Y, C71T, L96C, F113Y, D115N, R129L, A131G, T133M", "assay": "product formation by chiral GC-ECD", "assay_type": "biochemical", "conditions": "50 mM Tris-HCl pH 8.0, 10% glycerol, 30 °C"}}, "note": "Changes are numbered by the printed parent chain."}
{"smiles": "Cl[C@H]1[C@H](Cl)[C@@H](Cl)[C@@H](Cl)[C@H](Cl)[C@H]1Cl", "note": "[γ-HCH]", "values": [{"measurement": "product formation by chiral GC-ECD", "setting": "LinA-type1", "result": "incubations of LinA-type1 with γ-HCH led to the formation of only γ-PCCH-2"}, {"measurement": "product formation by chiral GC-ECD", "setting": "LinA-type2", "result": "incubations with LinA-type2 led to the formation of a mixture"}]}
